Results as given in DBAASP.
≈ marks a conversion by molar mass, not a printed value.

Tests used:
Test in all cases: ≥ marks a high value that may be exact or a test limit, other limits are often not marked, values filed in µg/mL are converted to µM
[1] = test system: Pseudomonas aeruginosa ATCC 27853
[2] = test system: Staphylococcus saprophyticus
[3] = test system: Staphylococcus aureus ATCC 6535
[4] = test system: Escherichia coli CCT 1371
[5] = test system: Zymomonas mobilis ATCC 10988
[6] = test system: Escherichia coli DH5alpha
[7] = test system: Candida parapsilosis
[8] = test system: Pseudomonas aeruginosa PAO1
[9] = test system: Bacillus subtilis DELTA
[10] = test system: Candida albicans ATCC 10231
[11] = test system: Candida tropicalis ATCC 750
[12] = test system: Candida krusei ATCC 6258
[13] = test system: Candida parapsilosis ATCC 90018
[14] = test system: Escherichia coli ATCC 25922
[15] = test system: Staphylococcus aureus ATCC 29213
[16] = test system: Candida glabrata ATCC 2001
[17] = test system: Staphylococcus aureus ATCC 9144
[18] = test system: Aureobasidium pullulans
[19] = test system: Bacillus subtilis ATCC 23857
[20] = test system: Micrococcus luteus
[21] = test system: Bacillus megaterium
[22] = test system: Corynebacterium glutamicum ATCC 13032
[23] = test system: Staphylococcus aureus ATCC BAA-1720
[24] = test system: Pseudomonas aeruginosa MTCC 2295
[25] = test system: Staphylococcus epidermidis ATCC 51625
[26] = test system: Escherichia coli MTCC 723
[27] = test system: Bacillus subtilis MTCC 2763
[28] = test system: Staphylococcus aureus MTCC 3160

An MIC [1] of 27.7 µM (≈ 30 µg/mL), an MIC [2] of 27.7 µM (≈ 30 µg/mL) and an MIC [3] of 27.7 µM (≈ 30 µg/mL) were found for `CC[C@H](C)[C@H](NC(=O)[C@H](CO)NC(=O)[C@@H](NC(=O)[C@H](CCCCN)NC(=O)[C@H](Cc1ccccc1)NC(=O)[C@@H]1CCCN1C(=O)[C@@H](N)CCC(=O)O)[C@@H](C)CC)C(=O)N[C@@H](Cc1cnc[nH]1)C(=O)N[C@@H](CC(C)C)C(N)=O` [EPFKISIHL] in this work. For the same compound, the MIC [4] was 13.8 µM (≈ 15 µg/mL).
An MIC [5] of no less than 59.7 µM, an MIC [6] of no less than 59.7 µM and an MIC [7] of no less than 59.7 µM were found for `CC[C@H](C)[C@H](NC(=O)[C@H](CC(C)C)NC(=O)[C@H](CCC(N)=O)NC(=O)[C@@H](NC(=O)[C@@H](NC(=O)[C@H](CCCN=C(N)N)NC(=O)[C@H](CCCCN)NC(=O)[C@H](Cc1ccccc1)NC(C)=O)[C@@H](C)CC)C(C)C)C(=O)N[C@@H](CCCCN)C(=O)N[C@@H](CC(=O)O)C(=O)N[C@@H](Cc1ccccc1)C(=O)N[C@@H](CC(C)C)C(=O)N[C@@H](CCCN=C(N)N)C(N)=O` [FKRIVQLIKDFLR] in this work. The MIC [8] was 59.7 µM (≈ 102 µg/mL) and the MIC [9] was 11.9 µM (≈ 20.5 µg/mL).
An MIC [1] greater than 130 µM, an MIC [10] of 250 µM (≈ 568 µg/mL) and an MIC [11] of no less than 500 µM were found for `CC[C@H](C)[C@H](NC(=O)CN)C(=O)N[C@@H](CC(C)C)C(=O)N[C@@H](CC(=O)O)C(=O)N[C@H](C(=O)N[C@@H](CCCCN)C(=O)N[C@@H](CC(N)=O)C(=O)N[C@@H](CCCCN)C(=O)N[C@H](C(=O)N[C@@H](CO)C(=O)N[C@@H](CC(N)=O)C(=O)N[C@@H](CC(C)C)C(=O)N[C@@H](Cc1ccccc1)C(=O)N[C@@H](CCCCN)C(=O)N[C@@H](CCCCN)C(=O)N[C@H](C(=O)N[C@@H](CCCCN)C(=O)NCC(=O)N[C@@H](CCC(=O)O)C(=O)N[C@@H](CCCCN)C(N)=O)[C@@H](C)CC)C(C)C)[C@@H](C)CC` [GILDIKNKVSNLFKKIKGEK] in this work. It also gave an MIC [12] of no less than 125 µM, an MIC [13] of no less than 500 µM and an MIC [14] greater than 130 µM. The MIC [15] was greater than 130 µM and the MIC [16] was no less than 500 µM.
An MIC [1] greater than 211 µM, an MIC [10] of 52.7 µM (≈ 62.4 µg/mL) and an MIC [17] of no less than 211 µM were found for `C[C@H](NC(=O)[C@H](CCCCN)NC(=O)[C@H](Cc1c[nH]c2ccccc12)NC(=O)[C@H](Cc1c[nH]c2ccccc12)NC(=O)CNC(=O)[C@@H]1CCCN1C(=O)[C@H](CCCCN)NC(=O)[C@H](CCCCN)NC(=O)CN)C(=O)N[C@@H](CCCCN)C(N)=O` [GKKPGWWKAK] in this work. For the same compound, the MIC [18] was no less than 52.7 µM, the MIC [19] was no less than 105 µM and the MIC [20] was no less than 105 µM. The MIC [14] was greater than 211 µM, the MIC [21] was 3.29 µM (≈ 3.9 µg/mL) and the MIC [22] was 3.29 µM (≈ 3.9 µg/mL).
An MIC [23] of 29.1 µM (≈ 25 µg/mL), an MIC [24] of no less than 116 µM and an MIC [25] of 23.3 µM (≈ 20 µg/mL) were found for `NC(=O)[C@H](CCCN=C(N)N)NC(=O)[C@H](Cc1c[nH]c2ccccc12)NC(=O)[C@H](Cc1c[nH]c2ccccc12)NC(=O)[C@H](CCCN=C(N)N)NC(=O)[C@@H](N)CCCN=C(N)N` [RRWWR] in this work. For the same compound, the MIC [26] was no less than 87.3 µM, the MIC [27] was no less than 81.5 µM and the MIC [28] was 29.1 µM (≈ 25 µg/mL).
